# Patent publication US9597314B2, “Beta-lactamylalkanoic acids for treating premenstrual disorders” (AZEVAN PHARMACEUTICALS, INC., priority 2005, dated 2017)
# Target: V1a (Homo sapiens, UniProt P37288)
# Assay: Human vasopression V1a receptor binding assay
# Set-up: host or cells: CHO cells (hV1a cell line), whole adherent cells
# Conditions: hV1a cell line (CHO); for IC50: 1 nM 3H-AVP, Table 17, read-out: V1a Binding Affinity (IC50 (nM)); for Ki: Table 18
# How it was run: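 Whole CHO cells stably expressing human V1a receptor competed 1 nM 3H-AVP against 10-fold serial compound dilutions (DMSO) in pH 7.0 Hepes/BSA/DMEM buffer, 45 min at 37° C.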
# Chain of V1a (P37288 whole entry): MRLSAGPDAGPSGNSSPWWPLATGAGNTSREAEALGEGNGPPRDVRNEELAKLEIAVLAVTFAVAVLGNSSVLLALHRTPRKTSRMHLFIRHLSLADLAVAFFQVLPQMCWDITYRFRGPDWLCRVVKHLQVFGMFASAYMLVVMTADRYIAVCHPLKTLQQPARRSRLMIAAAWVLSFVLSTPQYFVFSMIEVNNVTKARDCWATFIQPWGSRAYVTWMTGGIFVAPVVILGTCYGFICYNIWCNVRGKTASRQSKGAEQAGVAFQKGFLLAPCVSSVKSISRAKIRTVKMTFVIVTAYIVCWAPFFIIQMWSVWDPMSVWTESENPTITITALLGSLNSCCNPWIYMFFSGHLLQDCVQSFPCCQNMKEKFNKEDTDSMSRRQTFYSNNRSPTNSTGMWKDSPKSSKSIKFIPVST
IC50,Ki,SMILES
~100 nM,,COc1ccc(C2(NC(=O)[C@H](CCC(=O)N3CCN(C4CCCCC4)CC3)N3C(=O)[C@@H](N4C(=O)OC[C@@H]4c4ccccc4)[C@H]3/C=C/c3ccccc3)CC2)cc1 [Example 221AO]
~50 nM,,CCN1CCC[C@H]1CNC(=O)CC[C@@H](C(=O)N[C@@H]1CCCc2ccccc21)N1C(=O)[C@@H](N2C(=O)OC[C@@H]2c2ccccc2)[C@H]1/C=C/c1ccccc1 [Example 221AI]
~5 nM,,O=C(NC(c1ccccc1)c1ccccc1)[C@H](CCC(=O)N1CCN(C2CCCCC2)CC1)N1C(=O)[C@@H](N2C(=O)OC[C@@H]2c2ccccc2)[C@H]1/C=C/c1ccccc1 [Example 221K]
12 nM,7.4 nM,O=C(NC1(c2ccc(F)cc2)CCCC1)[C@H](CCC(=O)N1CCN(C2CCCCC2)CC1)N1C(=O)[C@@H](N2C(=O)OC[C@@H]2c2ccccc2)[C@H]1/C=C/c1ccccc1 [Example 221I]
2.04 nM,1.25 nM,O=C(C(COCc1ccccc1)N1C(=O)[C@@H](N2C(=O)OC[C@@H]2c2ccccc2)[C@H]1/C=C/c1ccccc1)N1CCN(C2CCCCC2)CC1 (mixture of isomers) [Example 232D]
0.59 nM,0.36 nM,CN(Cc1cccc(Cl)c1Cl)C(=O)[C@H](CCC(=O)N1CCN(C2CCCCC2)CC1)N1C(=O)[C@@H](N2C(=O)OC[C@@H]2c2ccccc2)[C@H]1/C=C/c1ccccc1 [Example 221B]
5.03 nM,3.08 nM,O=C(N[C@@H]1CCc2ccccc21)[C@H](CCC(=O)N1CCN(C2CCCCC2)CC1)N1C(=O)[C@@H](N2C(=O)OC[C@@H]2c2ccccc2)[C@H]1/C=C/c1ccccc1 [Example 221S]
56 nM,35 nM,O=C(N[C@@H]1CCCc2ccccc21)[C@H](CCC(=O)N1CCN(CCCO)CC1)N1C(=O)[C@@H](N2C(=O)OC[C@@H]2c2ccccc2)[C@H]1/C=C/c1ccccc1 [Example 221BI]
6.3 nM,3.9 nM,O=C(NC1(c2ccccc2)CCCC1)[C@H](CC(=O)N1CCC(N2CCCCC2)CC1)N1C(=O)[C@@H](N2C(=O)OC[C@@H]2c2ccccc2)[C@H]1/C=C/c1ccccc1 [Example 132D]
3 nM,1.84 nM,CN(Cc1cccc(Cl)c1)C(=O)[C@H](CCC(=O)N1CCN(C2CCCCC2)CC1)N1C(=O)[C@@H](N2C(=O)OC[C@@H]2c2ccccc2)[C@H]1/C=C/c1ccccc1 [Example 221C]

# Continued, compound first:
SMILES,IC50,Ki
O=C(NCc1ccc(Cl)c(Cl)c1)[C@H](CCC(=O)N1CCN(C2CCCCC2)CC1)N1C(=O)[C@@H](N2C(=O)OC[C@@H]2c2ccccc2)[C@H]1/C=C/c1ccccc1 [Example 173],< 100 nM,
"O=C(NC1CCCc2ccccc21)C(CCC(=O)N1CCN(C2CCCCC2)CC1)N1C(=O)C(N2C(=O)OCC2c2ccccc2)C1C=Cc1ccccc1 (single isomer, unassigned) [Example 215]",0.61 nM,0.38 nM
O=C(NCc1cccnc1)[C@H](CCC(=O)N1CCN(C2CCCCC2)CC1)N1C(=O)[C@@H](N2C(=O)OC[C@@H]2c2ccccc2)[C@H]1/C=C/c1ccccc1 [Example 209],16 nM,9.8 nM
O=C(NCCc1ccccc1)[C@H](CCC(=O)N1CCN(C2CCCCC2)CC1)N1C(=O)[C@@H](N2C(=O)OC[C@@H]2c2ccccc2)[C@H]1/C=C/c1ccccc1 [Example 200],5.08 nM,3.11 nM
O=C(NCc1ccccc1C(F)(F)F)[C@H](CCC(=O)N1CCN(C2CCCCC2)CC1)N1C(=O)[C@@H](N2C(=O)OC[C@@H]2c2ccccc2)[C@H]1/C=C/c1ccccc1 [Example 182],1.52 nM,
O=C(CC[C@@H](C(=O)NCc1cccc(C(F)(F)F)c1)N1C(=O)C(N2C(=O)OC[C@@H]2c2ccccc2)C1/C(F)=C/c1ccccc1)NC1CN2CCC1CC2 (stereo partly shown) [Example 230F],~100 nM,
O=C(NCc1cccc(F)c1)[C@H](CCC(=O)N1CCN(C2CCCCC2)CC1)N1C(=O)[C@@H](N2C(=O)OC[C@@H]2c2ccccc2)[C@H]1/C=C/c1ccccc1 [Example 184],< 10 nM,
O=C(NCc1cccc(C(F)(F)F)c1)[C@H](CCC(=O)N1CCN(CC2CCCCC2)CC1)N1C(=O)[C@@H](N2C(=O)OC[C@@H]2c2ccccc2)[C@H]1/C=C/c1ccccc1 [Example 120],,0.46 nM
O=C(C[C@@H](C(=O)NCc1cccc(C(F)(F)F)c1)N1C(=O)[C@@H](N2C(=O)OC[C@@H]2c2ccccc2)[C@H]1/C=C/c1ccccc1)N[C@H]1CCN(Cc2ccccc2)C1 [Example 85],,3.6 nM
O=C(NC1(c2ccccc2)CC1)[C@H](CCC(=O)N1CCN(C2CCCCC2)CC1)N1C(=O)[C@@H](N2C(=O)OC[C@@H]2c2ccccc2)[C@H]1/C=C/c1ccccc1 [Example 207],4.48 nM,2.74 nM
O=C(NCc1ccc(F)c(C(F)(F)F)c1)[C@H](CCC(=O)N1CCN(C2CCCCC2)CC1)N1C(=O)[C@@H](N2C(=O)OC[C@@H]2c2ccccc2)[C@H]1/C=C/c1ccccc1 [Example 178],< 50 nM,
C[C@H](NC(=O)[C@H](CCC(=O)N1CCN(C2CCCCC2)CC1)N1C(=O)[C@@H](N2C(=O)OC[C@@H]2c2ccccc2)[C@H]1/C=C/c1ccccc1)c1ccccc1 [Example 206],1.58 nM,0.97 nM
"O=C(C[C@@H](C(=O)NCc1cccc(C(F)(F)F)c1)N1C(=O)[C@@H](N2C(=O)OC[C@@H]2c2ccccc2)[C@H]1CCc1ccccc1)NC1CCN(Cc2ccccc2)CC1 [Example 235, 2(S)-[[(1-Benzylpiperidin-4-yl)amino]carbonylmethyl]-2-[3(S)-(4(S)-phenyloxazolidin-2-on-3-yl)-4(R)-(2-phenyleth-1-yl)azetidin-2-on-1-yl]acetic acid N-(3-trifluoromethylbenzyl)amide]",37 nM,23 nM
O=C(NCc1cccc(C(F)(F)F)c1)[C@@H](CCC(=O)N1CCN(CCc2ccccc2)CC1)N1C(=O)[C@@H](N2C(=O)OC[C@@H]2c2ccccc2)[C@H]1/C=C/c1ccccc1 [Example 136],,33 nM
O=C(NCc1ccc(Cl)c(C(F)(F)F)c1)[C@H](CCC(=O)N1CCN(C2CCCCC2)CC1)N1C(=O)[C@@H](N2C(=O)OC[C@@H]2c2ccccc2)[C@H]1/C=C/c1ccccc1 [Example 181],< 50 nM,
O=C(NCc1cccs1)[C@H](CCC(=O)N1CCN(C2CCCCC2)CC1)N1C(=O)[C@@H](N2C(=O)OC[C@@H]2c2ccccc2)[C@H]1/C=C/c1ccccc1 [Example 213],0.78 nM,0.48 nM
CCCN1CCN(C(=O)CC[C@@H](C(=O)NCc2cccc(C(F)(F)F)c2)N2C(=O)[C@@H](N3C(=O)OC[C@@H]3c3ccccc3)[C@H]2/C=C/c2ccccc2)CC1 [Example 120B],2.93 nM,1.79 nM
O=C(NC1CCc2ccccc21)[C@H](CCC(=O)N1CCN(C2CCCCC2)CC1)N1C(=O)[C@@H](N2C(=O)OC[C@@H]2c2ccccc2)[C@H]1/C=C/c1ccccc1 (stereo partly shown) [Example 216],1.83 nM,1.12 nM
Cc1cc(C)cc(CNC(=O)[C@H](CCC(=O)N2CCN(C3CCCCC3)CC2)N2C(=O)[C@@H](N3C(=O)OC[C@@H]3c3ccccc3)[C@H]2/C=C/c2ccccc2)c1 [Example 199],< 10 nM,
CCN1CCN(C(=O)CC[C@@H](C(=O)NCc2cccc(C(F)(F)F)c2)N2C(=O)[C@@H](N3C(=O)OC[C@@H]3c3ccccc3)[C@H]2/C(Cl)=C/c2ccccc2)CC1 [Example 228],13.6 nM,8.35 nM
O=C(NCc1ccncc1)[C@H](CCC(=O)N1CCN(C2CCCCC2)CC1)N1C(=O)[C@@H](N2C(=O)OC[C@@H]2c2ccccc2)[C@H]1/C=C/c1ccccc1 [Example 210],29.5 nM,18.1 nM
